# Measured values from patent publication US6893633B2, “Methods and compositions for promoting the maturation of monocytes” (Maxim Pharmaceuticals, Inc., priority 2000, dated 2005).
# Tests used:
# malignant melanoma = settings: melanoma patients with stage III or stage IV disease; cited from earlier work
# [1] = test system: CD86 antigen on human monocytes; experiment: CD86 antigen expression on human monocytes after treatment with histamine and/or GM-CSF; assay type: cell-based
# Description: Separation of monocytes. […] Hospital, Göteborg, Sweden. […] Treatment and cell staining.
# NK/T cells = settings: human, 25 μM
# Description: (§1) In human liver, NK-cells as well as NK/T-cells are much more abundant than in peripheral blood. […] All data are the mean±s.e.m. (n=15-30 blood donors).
# NK cells = settings: human, 25 μM
# Description: as §1
# T cells = settings: human, 25 μM
# Description: as §1
# prostate cancer = settings: histamine dihydrochloride 4 mg/day with CSF 300,000 U/kg/day and IL-12 100,000 U/kg/day
# Description: A subject presenting with prostate cancer is administered 300,000 U/kg/day of CSF, 100,000 U/kg/day of IL-12, and histamine dihydrochloride at a dose of 4 mg/day.
# [2] = test system: CD3+ T cells, CD3-/56+ NK cells, and CD3+/56+ NK/T cells; settings: apoptosis induced by autologous MO or GR; p<0.001
# Description: as §1
# [3] = test system: monocytes HLA-DR expression
# Plasmodia species = experiment: Treatment of malaria infection; assay type: in vivo; settings: serotonin 6 mg/day with GM-CSF 100,000 U/kg/day, parenteral
# Description: A subject presenting with malaria is parenterally administered GM-CSF at a rate of 100,000 U/kg/day and serotonin at a dosage of 6 mg/day. The composition acts to enhance monocyte maturation, thereby allowing the subject's immune system to eradicate cells infected with Plasmodia species. Specifically, serotonin enhances the monocyte maturation-promoting activity of […]. An increase in the number of dendritic cells presenting antigens associated with Plasmodia is observed. T-cells recognize the Plasmodia antigens, as foreign, attack, and kill the cells. The number of infected cells decreases.
# [4] = test system: metastatic melanoma of the liver; settings: histamine phosphate 10 mg/day with G-CSF 200,000 U/kg/day
# Description: A subject presenting with metastatic melanoma of the liver is administered 200,000 U/kg/day of G-CSF and histamine phosphate at a dose of 10 mg/day.
molecule,measurement,setting,value
granulocyte-macrophage colony-stimulating factor [GM-CSF],median survival time vs matched control patients,malignant melanoma,increased by a factor of three
same,mean of the monocytes that expressed CD86,"[1]; overnight incubation (16 hrs), GM-CSF 0.15 μg/ml, histamine dihydrochloride 10 μM",88%
OO [hydrogen peroxide],NK/T cells that became apoptotic,NK/T cells,78±7%
same,NK cells that became apoptotic,NK cells,65±7%
same,T cells that became apoptotic,T cells,35±5%
"Cl.Cl.NCCc1c[nH]cn1 [histamine, histamine dihydrochloride]",tumor mass,prostate cancer,decrease
same,prevention of apoptosis in all cell types,[2],significantly prevented
same,intensity of cell surface expression of CD86,[1]; histamine treatment alone,moderately enhanced
same,monocytes HLA-DR expression,[3],up-regulated
NCCc1c[nH]c2ccc(O)cc12 [serotonin],number of dendritic cells presenting antigens associated with Plasmodia,Plasmodia species,increase
same,number of infected cells,Plasmodia species,decreases
NCCc1c[nH]cn1.O=P(O)(O)O [histamine phosphate],tumor mass,[4],decrease
